According to patent publication US7927785B2, “Methods for in vitro expansion of hematopoietic stem cells” (The Board of Trustees of the University of Illinois, priority 2002, dated 2011):

Legend:
[1] = tested on: adult human bone marrow CD34+ cells; assay: Colony-forming cell (CFC) assay in methylcellulose; format: cell-based; details: for Total Number Colonies/plate / BFU-E / CFU-GM / CFU-Mix: cells after 9 days with cytokines, mean of 2 ± SEM; for BFU-E / CFU-GM / CFU-Mix: colonies/plate; for BFU (BFU-E colonies) / GM (CFU-GM colonies) / Mix (CFU-Mix colonies) / Total (colonies): mean of 3 experiments, 1000 unfractionated cells/plate after 9 days of culture, day 14; for Clonogenic potential: total colonies/number of cells plated×100; for Plating Efficiencies: total number of hematopoietic colonies/total cells plated × 100
Experimental: Colony-forming cells (CFC) were assayed under standard conditions in semisolid media as previously described (Brandt et al., Blood 94:106-113, 1999). Briefly 1×10^3 primary CD34^+ cells or unfractionated cultured cells exposed to different conditions used following 9 days of culture were plated in duplicate cultures containing 1 ml IMDM with 1.1% methylcellulose, 30% FBS, 5×10^−5 M 2-mercaptoethanol (Methocult, Stem Cell Technologies, Vancouver, BC, Canada), and a cocktail of growth factors including 100 ng/ml of SCF, 5 U/mL of EPO, 50 ng/mL of IL-3, 50 ng/mL of IL-6 and 50 ng/mL of G-CSF (Amgen Inc., Thousand Oaks, Calif.). The cells were plated into 35 mm tissue-culture dishes (Costar), and after 14 days of incubation at 37° C. in a 100%-humidified atmosphere containing 5% CO2, the colonies were scored with an inverted microscope following standard criteria (Breems et al., Leukemia, 8:1095-1104, 1994).

[2] = tested on: adult human bone marrow CD34+ cells; assay: Cell cycle analysis by FACS (SG2M %); format: cell-based; details: for SG2M % 48 hours: 48 hours from the start of the experiment; for SG2M % 72 hours: 72 hours from the start of the experiment
Experimental: Table 4. TSA Increases the Number of Cycling Cells. Cell cycle analysis at 48 h and 72 h from the start of the experiment is shown. Cells were examined by FACS analysis for cell cycle. SG2M % indicates cells in active DNA synthesis and indicates cells that may be actively cycling. This increased cycling allows the incorporation of the hypomethylating agent 5azaD.

[3] = tested on: adult human bone marrow CD34+ cells; assay: Cobblestone area-forming cell (CAFC) assay in limiting dilution; format: cell-based; details: for CAFC/10,000 Cells: after 9 days of culture, unfractionated, cobblestone areas counted after 5 weeks
Experimental: The ability of primitive HSC to form cobblestone areas (CA) in long term marrow cultures has been used as an in vitro surrogate progenitor HSC assay (Breems et al., Leukemia, 8:1095-1104, 1994, Lefkovits et al., Immunol. Today, 5:265-268, 1984; Cross et al., Curr. Opin. Genet. Dev., 5:609-613, 1997). CD34^+ cells after 9 days of culture from each condition were plated in limiting dilution in flat-bottomed 96-well plates (Costar) onto confluent, irradiated (7000cGy) monolayers of the murine stromal fibroblast line M2-10B4 (a gift from Dr. C. Eaves, Vancouver, BC, Canada). Each well contained 200 μL of a 50:50 mixture of IMDM and RPMI with 10% FBS. A cocktail of growth factors, including 100 ng/mL SCF, 100 ng/mL leukemia inhibitory factor (LIF), 50 ng/mL IL-3, 50 ng/mL IL-6 and 50 ng/mL granulocyte-monocyte colony stimulating factor (GM-CSF) (Amgen, Thousand Oaks, Calif.).
The cultures were fed weekly by replacement of one half of the culture volume with fresh medium containing the above cytokines at 2 times the previously defined concentration. After 5 weeks of culture in a humidified incubator at 37° C. containing 5% CO2, the number of CA were ennumerated. The CAFC frequency was computed by means of minimization of chi regression to the cell number at which 37% of wells were negative for CA formation, with 95% statistical precision using L-Calc (Limiting dilution calculation) software (Stem Cell Inc., Vancouver, Canada; Lefkovits et al., Curr. Opin. Genet. Dev. 5:609-613, 1997).

NOD/SCID mice = assay: Marrow repopulation assay of human cell grafts in NOD/SCID mice; format: in vivo; details: cells after 9 days of culture with cytokines; 7 weeks
Experimental: A colony of immunodeficient nonobese diabetic/ltsz-scid/scid (NOD/SCID) mice were purchased from the Jackson Laboratories (Bar Harbor, Me.) and were maintained as previously described (Coneallt et al., Proc. Nat'l Acad. Sci. USA, 94:9836-41, 1997). All NOD/SCID mice were kept under sterile conditions in the microisolator cages and were provided with autoclaved food and acidified water.
Mice were given 300cGy of total body gamma irradiation and human grafts were injected via the tail vein. Cytokines including SCF, IL-3 and GM-CSF at 5 ug/mouse were injected intraperitoneally on alternate days following injection of human grafts during the first week of transplant. Sulfamethoxazole (40 mg/mL) and Trimethoprim (8 mg/mL)(SMX/TMZ; Elkins-Sinn, Cherry Hill, N.J.) were added in the drinking water for 3 days post injection and then subsequently for 3 days beginning the second week of transplant. Mice were sacrificed after 7 weeks. Femurs and tibias were flushed with Hank's balanced salt solution (HBSS) (Biowhittiker) with 2% FBS (Hyclone) and 0.02% sodium azide and cell counts performed. […] Marrow cells were analyzed by flow cytometry to detect human cell engraftment as previously described.^29 Briefly to quantitate the total number of human cells present an aliquot of cells was stained with anti-CD45-FITC(BD) and anti-CD71-FITC(BD). […]

SMILES	Total Number Colonies/plate [1]	BFU-E [1]	CFU-GM [1]	CFU-Mix [1]	BFU (BFU-E colonies) [1]	GM (CFU-GM colonies) [1]	Mix (CFU-Mix colonies) [1]	Total (colonies) [1]	Clonogenic potential [1]	Plating Efficiencies [1]	SG2M % 48 hours [2]	SG2M % 72 hours [2]	fold increase in the number of CAFC over the primary cells ([3]; 9 days with cytokines)	CAFC/10,000 Cells [3]	marrow repopulating activity: engraftment and multilineage differentiation (NOD/SCID mice)	numbers of CAFC relative to cytokines alone ([3]; 9 days with cytokines)
Nc1ncn([C@H]2C[C@H](O)[C@@H](CO)O2)c(=O)n1 [5azaD, 5-aza2′deoxycitidine]	97.8 ± 11.1	4 ± 1.5	73.0 ± 0.25	20.8 ± 9.3	5	52	27	84	8.4%	9.8 ± 1.1	36.5%	35.5%	1.9 fold	96 CAFC/10,000 cells	retained the ability to engraft NOD/SCID mice	
CC(/C=C/C(=O)NO)=C\[C@@H](C)C(=O)c1ccc(N(C)C)cc1 [TSA, Trichostatin A]	14.3 ± 8.1	0.0	13 ± 6.6	1.3 ± 0.8	0	3	0	3	0.3%	1.4 ± 0.8	36%	41.6%		16 CAFC/10,000 cells	no longer possessed such marrow repopulating activity	comparable numbers of CAFC as cultures receiving cytokines alone
